Measured values published in ChEMBL document CHEMBL3612061, “Imidazopyridines as a source of biological activity and their pharmacological potentials-Infrared and Raman spectroscopic evidence of their content in pharmaceuticals and plant materials” (Bioorg Med Chem, 2015).
≈ marks a conversion by molar mass, not a printed value.

Legend:
Cerebral cortex = assay: Inhibition of GABA uptake in rat cerebral cortex; assay type: functional, tissue-based
MCF7 = assay: Cytotoxicity against human MCF7 cells; assay type: functional, cell-based
MDA-MB-231 = assay: Cytotoxicity against human MDA-MB-231 cells; assay type: functional, cell-based
[1] = Cytotoxicity against human SKBR3 cells; assay type: functional, cell-based; details: SK-BR-3
[2] = Cytotoxicity against mouse leukemia cells; assay type: functional, cell-based; details: Leukemia cell
[3] = biological target: T1, Type-2 angiotensin II receptor (Rattus norvegicus, UniProt P35351); assay: Inhibition of rat AT2 receptor
T1 sequence (P35351 whole entry): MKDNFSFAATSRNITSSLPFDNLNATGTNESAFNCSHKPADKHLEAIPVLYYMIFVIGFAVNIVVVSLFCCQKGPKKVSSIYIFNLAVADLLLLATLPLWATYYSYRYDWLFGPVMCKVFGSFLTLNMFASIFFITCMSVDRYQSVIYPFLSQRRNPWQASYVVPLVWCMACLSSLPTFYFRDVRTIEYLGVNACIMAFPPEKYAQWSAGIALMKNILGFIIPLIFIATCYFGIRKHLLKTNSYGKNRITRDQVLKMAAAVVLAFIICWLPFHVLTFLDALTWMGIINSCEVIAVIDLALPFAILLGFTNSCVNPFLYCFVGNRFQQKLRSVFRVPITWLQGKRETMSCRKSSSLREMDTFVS

[4] = tested on: Classical swine fever virus; assay: Antiviral activity against Classical swine fever virus assessed as protection of viral infection by cell based assay; assay type: functional
[5] = tested on: Vesicular stomatitis virus; assay: Antiviral activity against Vesicular stomatitis virus assessed as protection against virus-induced cytopathogenic effect by cell based assay; assay type: functional; details: read-out: ID50 (the source's name)
Human respirovirus 3 = assay: Antiviral activity against Parainfluenza type 3 assessed as protection against virus-induced cytopathogenic effect by cell based assay; assay type: functional; details: read-out: ID50 (the source's name)
Yellow fever virus = assay: Antiviral activity against Yellow fever virus assessed as protection against virus-induced cytopathogenic effect by cell based assay; assay type: functional; details: read-out: ID50 (the source's name)

O=C(O)C1Cc2[nH]cnc2CN1 (configuration not stated)
IC50 (Cerebral cortex): 270000 nM

Nc1nccc2c1ncn2[C@@H]1O[C@H](CO)[C@@H](O)[C@H]1O
IC50 (MCF7): < 100 nM | IC50 (MDA-MB-231): < 100 nM | IC50 [1]: < 100 nM

OC[C@H]1O[C@@H](n2cnc3/c(=N\O)[nH]cnc32)[C@H](O)[C@@H]1O
IC50 [2]: 900 nM

OC[C@H]1O[C@@H](n2cnc3c(NO)cc(Cl)nc32)[C@H](O)[C@@H]1O
IC50 [2]: 900 nM

COc1ccc(CN2C=NC3CN(C(=O)C(c4ccccc4)c4ccccc4)C(C(=O)O)CC32)cc1C (configuration not stated)
IC50 [3]: 34 nM

Brc1ccc(Cn2ccc3nc(-c4ccccc4)nc-3c2)cc1
EC50 [4]: 800 nM

Nc1nccc2c1ncn2C1C=C(CO)C(O)C1O (configuration not stated) [3-DEAZANEPLANOCIN A]
IC50 (MCF7): < 250 nM | IC50 (MDA-MB-231): < 250 nM | IC50 [1]: < 250 nM | IC50 [5]: 0.02 µg/mL (≈ 0.0763 µM) | IC50 (Human respirovirus 3): 0.02 µg/mL (≈ 0.0763 µM) | IC50 (Yellow fever virus): 0.02 µg/mL (≈ 0.0763 µM)

Nc1ncnc2c1ncn2[C@@H]1C=C(CO)[C@@H](O)[C@H]1O [NEOPLANOCIN A]
IC50 (MCF7): < 25000 nM | IC50 (MDA-MB-231): < 25000 nM | IC50 [1]: < 25000 nM
